Measurements published in patent publication US20040204596A1, “Method for the preparation of unsaturated hydroxy fatty acids and their esters, their use in pharmaceutical and/or cosmetic preparations” (Pierre Potier, priority 2001, published 2004).
Values joined by “and” are separate entries in the source; they are usually repeats but may differ in a detail not shown here. Equal values may be shown once. Blank lines part the entries; values can stand above or below the compound they belong to.

What was measured:
[1] = tested on: adipose tissue explants; assay: Lipolytic activity on adipose tissue explants ex vivo (lipids released in culture medium, TLC; histology); format: cell-based
Experimental: DHA was incorporated in the culture medium at a final concentration of 0.25 and 0.5%. After 8 days of contact, the activity was evaluated by quantitative determination of the lipids distributed in the culture medium.
Twelve adipose tissue explants (plasty P202-AB31) were prepared and placed in survival state in BEM medium (BIO-EC's Explants Medium). The explants were distributed in 4 lots of 3 explants:
one positive control lot (caffeine at 0.1%),
two product lots (DHA at 0.25 and 0.5%).
On Day 0, the explants were placed in survival state in 2 ml of culture medium, in which the product to be tested was incorporated.
This treatment was renewed on Day 2, Day 4 and Day 6.
On Day 2, Day 4, Day 6 and Day 8, the culture medium was collected. For each explant, the media collected on Day 2, Day 4, Day 6 and Day 8 were grouped together in the same tube and preserved at −20° C. for quantitative determination of the lipids.
On Day 8, the adipose tissue explants were collected and fixed in ordinary Bouin's fixative for the histological study.
The fixed adipose tissue explants were dehydrated, impregnated with paraffin, but in block form, sectioned and stained with Masson's trichrome.
After extraction of the culture medium, the lipids were separated and quantitatively determined by TLC.
The viability and morphology of the adipocytes was monitored by the histologic study.
The lipolytic activity was evaluated by analysis of the proportions of monoglycerides, diglycerides, triglycerides and free fatty acids.
The results are expressed in mass (μg) of each category of lipid released in the culture medium during the 8 days of treatment.
Table 5 below represents the statistical analysis using Student's test of the results of the quantitative determination of the fatty acids released in the culture medium during the 8 days of treatment.

[2] = tested on: collagenase; assay: Anticollagenase activity on frozen sections of human skin (picrosirius staining); format: biochemical; design: key to Alteration of the collagen structure: 0: An absence of alteration of the collagen structure; 1: somewhat; 2: markedly to very strongly altered collagen structure; settings: for Alteration of the collagen structure: frozen human skin sections, 2 hours at 37° C.; for inhibition of the activity of collagenase: collagenase 30 U/ml
Experimental: This example was performed with different solutions at concentrations of 1 and 2% of active principles in comparison with the excipient alone, buffer controls and collagenase. The active principles used were DHA, the 2-dimethylamino ethyl ester of trans-10-hydroxy-2-decenoic acid (ML40) and the glycerol ester of trans-10-hydroxy-2-decenoic acid (GM).
Frozen 5-μm-thick sections from a mammary plasty of a person were placed on histological slides (4 sections per slide). Each solution was tested on one slide.
The sections were covered with the solutions to be tested then incubated for 2 hours at 37° C. in a humid chamber. The solutions were eliminated by repeated rinsings and the sections were stained with picrosirius. Microscopic examination was performed with the 2.5 objective and paper photographs were taken with Kodak Gold 100 ASA film.
Table 2 summarizes the results of alteration of the collagen structure as a function of the tested solution. An absence of alteration of the collagen structure is indicated by 0 while a somewhat or markedly to very strongly altered collagen structure is indicated, respectively, by 1 or 2.

[3] = tested on: cutaneous 5-alpha-reductase; assay: Inhibition of cutaneous 5-alpha-reductase activity; format: biochemical
Description: DHA is capable of inhibiting cutaneous 5-alpha-reductase, the enzyme responsible for the production of di-hydro-testosterone. Treatment with 0.1% of DHA and treatment with 0.5% of DHA reduced by about 70% and about 90%, respectively, the 5-alpha-reductase activity compared to an untreated control. This inhibition results in a considerable reduction of the sebum level.

[4] = tested on: collagenase; assay: Anticollagenase activity on human skin explants maintained in survival state; format: cell-based
Experimental: The study was performed on a 5% GM product in comparison with the excipient (hydrocerin), a positive control and a control in the presence of collagenase at 100 U/ml.
Hydrocerin was used as the excipient for the preparation of the product to be applied. This study was performed twice. […] In the second study, the study time was extended and the collection of the explants was performed on Day 2 and on Day 4.
Human skin explants prepared and distributed into 16 lots of three explants each were placed in survival state according to Table 3.
The product was applied on Day 0 and on Day 2 at the rate of 20 mg per explant and collagenase was incorporated into the culture medium of the […].
Three explants of each lot were collected on Day 2 and on Day 4, fixed in ordinary Bouin's fixative and subjected to histological processing.
The histological study comprised:
impregnation in paraffin,
staining with Sirius red F3B,
calorimetric measurements of the collagen by image analysis,
comparison with photographs.
For this reason, the survival, the contact and the application were extended to Day 4. The collagenase action was monitored in two ways: intensity of the coloration of the collagen network and thickness of the dermal structure. With this study, penetration of the active principle and its inhibitory activity were correlated in relation to collagenase.

[5] = caffeine 0.1%, 8 days of treatment
[6] = DHA at 0.25%, 8 days of treatment
[7] = DHA at 0.5%, 8 days of treatment
[8] = 1% active principle + collagenase 30 U/ml
[9] = 1% active principle, no collagenase
[10] = 2% active principle + collagenase 30 U/ml
[11] = 2% active principle, no collagenase
[12] = product containing 5% of GM in hydrocerin, 20 mg per explant on Day 0 and Day 2, collagenase 100 U/ml, Day 4

Structure (SMILES): Cn1c(=O)c2c(ncn2C)n(C)c1=O [Caffeine, caffeine, reference compound]
% augmentation/Control of fatty acids released [1, 5]: 2780.6%
Diglycerides released in the culture medium, Mean [1, 5]: 0.02 µg
Fatty acids released in the culture medium, Mean [1, 5]: 27.99 µg
Monoglycerides released in the culture medium, Mean [1, 5]: 1.22 µg
Triglycerides released in the culture medium, Mean [1, 5]: 197.34 µg
fatty acids released in the culture medium, individual explants [1, 5]: 33.89 µg and 24.10 µg and 25.97 µg
% augmentation/Control of fatty acids released ([1]; caffeine 0.1%, 8 days of treatment, listed as caffeine): 2780%
augmentation factor of fatty acids released compared to the untreated control ([1]; caffeine at 0.1%, 8 days of treatment): about 29

Structure (SMILES): c1cnc2c(c1)ccc1cccnc12 [phenanthroline, reference compound]
dermal structure ([4]; positive control + collagenase 100 U/ml, Day 4): the same as that of the controls without collagenase

More lines, main results first:

Alteration of the collagen structure [2, 8]: 0
Alteration of the collagen structure [2, 9]: 0
inhibition of the activity of collagenase ([2]; 1%): inhibited completely
Alteration of the collagen structure [2, 10]: 0
Alteration of the collagen structure [2, 11]: 0
inhibition of the activity of collagenase ([2]; 2%): inhibited completely
reduction of 5-alpha-reductase activity compared to an untreated control ([3]; treatment with 0.1% of DHA): about 70%
reduction of 5-alpha-reductase activity compared to an untreated control ([3]; treatment with 0.5% of DHA): about 90%
Structure (SMILES): O=C(O)/C=C/CCCCCCCO [DHA, trans-10-hydroxy-2-decenoic acid]
lipolytic activity (Student's test) ([1]; DHA applied at 0.25%): significant lipolytic activity
lipolytic activity (Student's test) ([1]; DHA applied at 0.5%): significant lipolytic activity
% augmentation/Control of fatty acids released [1, 6]: 1075% and 1075.6%
Diglycerides released in the culture medium, Mean [1, 6]: 0.00 µg
Fatty acids released in the culture medium, Mean [1, 6]: 11.42 µg
Monoglycerides released in the culture medium, Mean [1, 6]: 3.64 µg
Triglycerides released in the culture medium, Mean [1, 6]: 156.15 µg
fatty acids released in the culture medium, individual explants [1, 6]: 9.95 µg and 11.67 µg and 12.66 µg
% augmentation/Control of fatty acids released [1, 7]: 1087% and 1086.8%
Diglycerides released in the culture medium, Mean [1, 7]: 0.00 µg
Fatty acids released in the culture medium, Mean [1, 7]: 11.53 µg
Monoglycerides released in the culture medium, Mean [1, 7]: 7.06 µg
Triglycerides released in the culture medium, Mean [1, 7]: 202.56 µg
fatty acids released in the culture medium, individual explants [1, 7]: 12.81 µg and 11.64 µg and 10.14 µg
maximum effective dose (lipolytic effect) ([1]; adipose tissue explants, 8 days): ~0.25%

Alteration of the collagen structure [2, 8]: 2
Alteration of the collagen structure [2, 9]: 0
Alteration of the collagen structure [2, 10]: 1
Alteration of the collagen structure [2, 11]: 0
inhibition of the activity of collagenase ([2]; 2%): only slightly inhibited
Structure (SMILES): O=C(/C=C/CCCCCCCO)OCC(O)CO (stereo not drawn) [GM, glycerol ester of trans-10-hydroxy-2-decenoic acid]
anticollagenase activity ([4]; 5% GM product, human skin explants, collagenase 100 U/ml): pronounced anticollagenase activity
degradation of the collagen bundles [4, 12]: very slightly degraded
thickness of the dermis [4, 12]: diminished slightly

Alteration of the collagen structure [2, 8]: 2
Alteration of the collagen structure [2, 9]: 0
Alteration of the collagen structure [2, 10]: 1
Alteration of the collagen structure [2, 11]: 0
inhibition of the activity of collagenase ([2]; 2%): only slightly inhibited
Structure (SMILES): CN(C)CCOC(=O)/C=C/CCCCCCCO [ML40, 2-dimethylamino ethyl ester of trans-10-hydroxy-2-decenoic acid]
